Measured values: patent US20240132464A1, “HETEROCYCLIC COMPOUNDS AS E3 LIGASE INHIBITORS” (Accutar Biotechnology Inc., priority 2022, published 2024)

Target: T1, GID4 (Uniprot ID: Q81VV7, residues 124-289) (Homo sapiens, UniProt Q8IVV7)
T1 construct: GID4 (Uniprot ID: Q81VV7, residues 124-289)
T1 sequence (Q8IVV7 124-289): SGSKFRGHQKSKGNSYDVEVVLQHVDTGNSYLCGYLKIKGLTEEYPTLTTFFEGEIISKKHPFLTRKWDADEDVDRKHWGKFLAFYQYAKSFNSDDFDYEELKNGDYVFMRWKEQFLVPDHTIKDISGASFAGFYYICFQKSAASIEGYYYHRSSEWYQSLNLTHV
Experiment: GID4 competitive binding assay (AlphaScreen, GID4/degron peptide PGLW)
Details: 24 nM GID4, 48 nM biotinylated degron peptide PGLW, 4° C., read-out: IC50 (Inhibition of GID4/Degron binding by test compounds)
Method: GID4 Competitive Binding Assay
GID4 binding affinity of compounds disclosed herein was measured by monitoring the interaction of GID4 with its degron peptide (PGLW) in the presence of the test compounds. A truncated version of GID4 (Uniprot ID: Q81VV7, residues 124-289) with a 6*His at its C-terminus was used in this assay. Tetrapeptide, PGLW, was synthesized and tagged with an additional lysine labeled with biotin at its sidechain.
GID4 competitive binding assays were performed in a 384-well plate at 4° C. in a 20 μL reaction volume. Briefly, 24 nM GID4 (final concentration) proteins were pre-incubated with 48 nM biotinylated degron peptide (final concentration) in an assay buffer containing 20 mM HEPES, pH 7.5, 100 mM NaCl, 1 mM DTT, 0.1% Tween-20, and 0.05% BSA in the presence of the test compound in 2% DMSO (final concentration) at various concentrations for 2 h. 5 ug/ml Streptavidin ALphaScreen donor beads and 5 ug/ml nickel chelate (Ni-NTA) ALphaScreen acceptor beads (PerkinElmer, 6760619C) (final concentrations) were then added to the mixture. After an incubation of 1 h at 4° C., the fluorescent signals were obtained on the EnVision® 2105 Multilabel Plate Reader (PerkinElmer).
Raw ALphaScreen data were converted to a percentage of inhibition (relative to DMSO) using the following equations: […]
For a given test compound concentration X:
Signal (X)=Signal (GID4 & peptide & compound)−Signal (GID4 & buffer & compound)
Percentage of inhibition at concentration X=[1−Signal(X)/Signal (DMSO)]*100% b)
The IC50 values were determined by nonlinear regression of plots of [inhibitor] vs. percentage of inhibition with variable slope.
Table 3 summarizes the inhibition of binding between GID4 and degron peptide with compounds of the present disclosure. Compounds were ranked into bins as follows for IC50: A indicates <500 nM; B indicates 500 nM-5000 nM; C indicates >5000 nM.

SMILES | IC50
CN(C)CCNC(=O)c1csc(-c2cc(O)c3ncccc3c2)c1 [Compound 268, N-(2-(dimethylamino)ethyl)-5-(8-hydroxyquinolin-6-yl)thiophene-3-carboxamide] | < 500 nM
CN(C)CCCNC(=O)c1cc(Cl)c(-c2cc(O)c3ncccc3c2)cc1Cl [Compound 322, 2,5-dichloro-N-(3-(dimethylamino)propyl)-4-(8-hydroxyquinolin-6-yl)benzamide] | < 500 nM
CN(C)CCCNC(=O)c1ccc(-c2cc(O)c3nc(N)ccc3c2)cc1 [Compound 261, 4-(2-amino-8-hydroxyquinolin-6-yl)-N-(3-(dimethylamino)propyl)benzamide] | < 500 nM
CN(C)CCCNC(=O)c1ccc(-c2cc(O)c3ncccc3c2)cc1N [Compound 312, 2-amino-N-(3-(dimethylamino)propyl)-4-(8-hydroxyquinolin-6-yl)benzamide] | < 500 nM
COC1CCN(C(=O)c2n[nH]c3ccc(-c4ccc5ccnc(N)c5c4)cc23)CC1 [Compound 332, (5-(1-aminoisoquinolin-7-yl)-1H-indazol-3-yl)(4-methoxypiperidin-1-yl)methanone] | < 500 nM
CN(C)CCCNC(=O)c1ccc(-c2cc(O)c3ncc(=O)[nH]c3c2)cc1 [Compound 273, N-(3-(dimethylamino)propyl)-4-(8-hydroxy-3-oxo-3,4-dihydroquinoxalin-6-yl)benzamide] | 500 to 5000 nM
CN1CC(NC(=O)c2ccc(-c3cc(O)c4ncccc4c3)cc2)C1 [Compound 291, 4-(8-hydroxyquinolin-6-yl)-N-(1-methylazetidin-3-yl)benzamide] | < 500 nM
Nc1nc(N2CCCC(c3ccn[nH]3)C2)c2[nH]ccc2n1 (stereo not drawn) [Compound 206, 4-(3-(1H-pyrazol-5-yl)piperidin-1-yl)-5H-pyrrolo[3,2-d]pyrimidin-2-amine] | > 5000 nM
CN1CCC(CNC(=O)c2ccc(-c3cc(O)c4ncccc4c3)cc2)C1 (stereo not drawn) [Compound 292, 4-(8-hydroxyquinolin-6-yl)-N-((1-methylpyrrolidin-3-yl)methyl)benzamide] | < 500 nM
CN(C)CCNCc1n[nH]c2ccc(-c3ccc4ccnc(N)c4c3)cc12 [Compound 3, N1-((5-(1-aminoisoquinolin-7-yl)-1H-indazol-3-yl)methyl)-N2,N2-dimethylethane-1,2-diamine] | < 500 nM
CN(C)CCCNC(=O)c1ccc(-c2cc(O)c3ncccc3c2)cn1 [Compound 295, N-(3-(dimethylamino)propyl)-5-(8-hydroxyquinolin-6-yl)picolinamide] | < 500 nM
CNC(=O)CCC1CCCN(c2nc(N)nc3c2CCCN3)C1 (stereo not drawn) [Compound 140, 3-(1-(2-amino-5,6,7,8-tetrahydropyrido[2,3-d]pyrimidin-4-yl)piperidin-3-yl)-N-methylpropanamide] | 500 to 5000 nM
CN(C)CCCNC(=O)c1cnc(-c2cc(O)c3ncccc3c2)nc1 [Compound 282, N-(3-(dimethylamino)propyl)-2-(8-hydroxyquinolin-6-yl)pyrimidine-5-carboxamide] | < 500 nM
O=C(c1cccc(-c2cc(O)c3ncccc3c2)c1)N1CCCC1 [Compound 293, (3-(8-hydroxyquinolin-6-yl)phenyl)(pyrrolidin-1-yl)methanone] | 500 to 5000 nM
Nc1nc2c(c(N3CCCC(c4ccn[nH]4)C3)n1)CSCC2 (stereo not drawn) [Compound 208, 4-(3-(1H-pyrazol-5-yl)piperidin-1-yl)-7,8-dihydro-5H-thiopyrano[4,3-d]pyrimidin-2-amine] | > 5000 nM

Results, then the compound that gave them:

IC50 | SMILES
500 to 5000 nM | CC(C)c1cc(N2CCNC(c3csc4ccccc34)C2)nc(N)n1 (stereo not drawn) [Compound 162, 4-(3-(benzo[b]thiophen-3-yl)piperazin-1-yl)-6-isopropylpyrimidin-2-amine]
500 to 5000 nM | Nc1nc(C2CC2)cc(N2CCN[C@H](c3ccccc3Br)C2)n1 (stereo in doubt) [Compound 132, (R/S)-4-(3-(2-bromophenyl)piperazin-1-yl)-6-cyclopropylpyrimidin-2-amine]
< 500 nM | Nc1cc(N2CCNC(c3cc(N4CCC(CO)CC4)ccc3Br)C2)nc(N)n1 (stereo not drawn) [Compound 33, (1-(4-bromo-3-(4-(2,6-diaminopyrimidin-4-yl)piperazin-2-yl)phenyl)piperidin-4-yl)methanol]
< 500 nM | COC(=O)c1ccc(Br)c(C2CN(c3cc(N)nc(N)n3)CCN2)c1 (stereo not drawn) [Compound 38, methyl 4-bromo-3-(4-(2,6-diaminopyrimidin-4-yl)piperazin-2-yl)benzoate]
< 500 nM | CNc1cc(N2CCN[C@H](c3ccccc3Br)C2)nc(NC)n1 (stereo in doubt) [Compound 131, (R/S)-6-(3-(2-bromophenyl)piperazin-1-yl)-N2,N4-dimethylpyrimidine-2,4-diamine]
> 5000 nM | Nc1nc(N2CCCC(c3ccn[nH]3)C2)c2cc[nH]c2n1 (stereo not drawn) [Compound 205, 4-(3-(1H-pyrazol-5-yl)piperidin-1-yl)-7H-pyrrolo[2,3-d]pyrimidin-2-amine]
500 to 5000 nM | CC(C)c1cc(N2CCN[C@@H](c3cnc4ccccn34)C2)c2nc[nH]c2n1 (stereo in doubt) [Compound 368, (R/S)-7-(3-(imidazo[1,2-a]pyridin-3-yl)piperazin-1-yl)-5-isopropyl-3H-imidazo[4,5-b]pyridine]
> 5000 nM | CC(C)c1cc(N2CCCC(c3cnc4ccccn34)C2)nc(NCCO)n1 (stereo not drawn) [Compound 127, 2-((4-(3-(imidazo[1,2-a]pyridin-3-yl)piperidin-1-yl)-6-isopropylpyrimidin-2-yl)amino)ethan-1-ol]
< 500 nM | CN(C)CCNC(=O)c1ccc(Br)c(C2CN(c3cc(N)nc(N)n3)CCN2)c1 (stereo not drawn) [Compound 9, 4-bromo-3-(4-(2,6-diaminopyrimidin-4-yl)piperazin-2-yl)-N-(2-(dimethylamino)ethyl)benzamide]
> 5000 nM | Nc1nc(N)c(F)c(N2CCOC(c3ccccc3Br)C2)n1 (single isomer, unassigned) [Compound 49, (R/S)-6-(2-(2-bromophenyl)morpholino)-5-fluoropyrimidine-2,4-diamine]
500 to 5000 nM | Nc1cc(N2CCCC(O)(c3ccccc3Br)C2)nc(N)n1 (stereo not drawn) [Compound 234, 3-(2-bromophenyl)-1-(2,6-diaminopyrimidin-4-yl)piperidin-3-ol]
500 to 5000 nM | CC(C)c1cc(-c2cc(-c3ccnn3C)c3cccc(-c4cc[nH]n4)c3n2)cc(N)n1 [Compound 367, 6-isopropyl-4-(4-(1-methyl-1H-pyrazol-5-yl)-8-(1H-pyrazol-3-yl)quinolin-2-yl)pyridin-2-amine]
500 to 5000 nM | CNc1nc(N)cc(N2CCCC(c3cnc4ccccn34)C2)n1 (racemic) [Compound 117, (S/R)-6-(3-(imidazo[1,2-a]pyridin-3-yl)piperidin-1-yl)-N2-methylpyrimidine-2,4-diamine]
500 to 5000 nM | CCc1ccccc1C1CN(c2cc(C(C)C)nc(N)n2)CCN1 (stereo not drawn) [Compound 168, 4-(3-(2-ethylphenyl)piperazin-1-yl)-6-isopropylpyrimidin-2-amine]
< 500 nM | CC(C)c1cc(N2CCCC(c3cnc4ncccn34)C2)nc(N)n1 (stereo not drawn) [Compound 245, 4-(3-(imidazo[1,2-a]pyrimidin-3-yl)piperidin-1-yl)-6-isopropylpyrimidin-2-amine]
500 to 5000 nM | CC(C)c1cc(N2CCCC(c3n[nH]c4ccccc34)C2)nc(N)n1 (stereo not drawn) [Compound 251, 4-(3-(1H-indazol-3-yl)piperidin-1-yl)-6-isopropylpyrimidin-2-amine]
< 500 nM | CC(C)c1cc(N2CCCC(c3cnc4ccccn34)C2)nc(N)n1 (stereo not drawn) [Compound 178, 4-(3-(imidazo[1,2-a]pyridin-3-yl)piperidin-1-yl)-6-isopropylpyrimidin-2-amine]
> 5000 nM | Nc1nc(NC2CC2)nc(N2CCN(CCO)C(c3ccccc3Br)C2)n1 (stereo not drawn) [Compound 53, 2-(4-(4-amino-6-(cyclopropylamino)-1,3,5-triazin-2-yl)-2-(2-bromophenyl)piperazin-1-yl)ethan-1-ol]
< 500 nM | Nc1cc(N2CCOC(c3ccccc3Br)C2)nc(N)n1 (single isomer, unassigned) [Compound 146, (S/R)-6-(2-(2-bromophenyl)morpholino)pyrimidine-2,4-diamine]
500 to 5000 nM | CC(C)c1cc(N2CCCC(F)(c3ccccc3Br)C2)nc(N)n1 (stereo not drawn) [Compound 233, 4-(3-(2-bromophenyl)-3-fluoropiperidin-1-yl)-6-isopropylpyrimidin-2-amine]
< 500 nM | CN1CCN(C(=O)c2ccc(Br)c(C3CN(c4cc(N)nc(N)n4)CCN3)c2)CC1 (single isomer, unassigned) [Compound 15, (R/S)-(4-bromo-3-(4-(2,6-diaminopyrimidin-4-yl)piperazin-2-yl)phenyl)(4-methylpiperazin-1-yl)methanone]
